Paper PMC10005301, “Prediction of the n-Octanol/Water Partition Coefficients of Basic Compounds Using Multi-Parameter QSRR Models Based on IS-RPLC Retention Behavior in a Wide pH Range” (Molecules, 2023)
Where two headings read alike, the source gives them in different places.

Assays:
[1] = ref database module of ACD/Labs software; cited from earlier work
[2] = IS-RPLC retention on silica-based C18 column, logkw by linear solvent strength model; assay type: physicochemical
Experimental: (§1) The retention behavior of the 42 basic compounds (Table 1) were investigated at different ratios of methanol (φ = 0.7–0.1, the interval was 0.1 or 0.05 based on the retention of the investigated solutes). The logk values were plotted versus φ for each solute at pH 7.0, pH 8.0, pH 9.0, and pH 10.0. […] The logD values of the model compounds and verification compounds calculated using Equation (S3) based on the logP and pH values are also listed in Table 1.
The column temperature was set at 30 °C. Methanol and 20 mmol/L ammonium phosphate buffer (pH = 7.0, 8.0, 9.0, 10.0) was used as the mobile phase to perform isocratic elution. The injection volume was 10 µL and the detection wavelength for each eluted compound was set at its optimum absorption wavelength.
(§2) At each pH, the retention time (tR) of every analyte was determined for at least four different volume fractions (φ) of methanol. All the tR values of the solutes were obtained by averaging the results of at least three independent injections. The tR value was corrected using dual-point retention time correction (DP-RTC). For a detailed description of the process, refer to our previous work. For the different hydrophobicities of the studied compounds, benzene, toluene, and benzyl alcohol were used as anchor compounds in the DP-RTC method. The dead time t0 was determined using uracil. For each solute, the logarithm of k was plotted against φ, and logkw was obtained using the Equation (S1). The logD values of the model compounds were calculated using Equation (S3), and the logD–logkw models were established with Equation (S4). The statistical analysis for the regression model was accomplished using Origin 9.4. […]
(§3) Where, k is the capacity factor, φ is the volume fraction of organic modifier in the mobile phase, and S is the constant obtained by linear regression in the equations. […]
The Eqs. (S1) and (S2) are the basis for the determination of logP by revered- phase liquid chromatography (RPLC) method. For dissociative solutes, it has been confirmed by many studies that the logD calibrated from logP has a better linear correlation with logkw than logP. […]

[3] = ref database module of ACD/Labs software, cited from earlier work
[4] = design: method as in UFZ-LSER database; conditions: hydrogen bonding parameter B; ref UFZ-LSER database; cited from earlier work
[5] = Description: as §1, §2, §3
and logkw, which is usually called Collander equation [25 ]. lo g lo g wPm k n= + (S2)
Where, m and n are constants obtained by linear regression.
The Eqs. (S1) and (S2) are the basis for the determination of logP by revered- phase liquid chromatography (RPLC) method. For dissociative solutes, it has been confirmed by many studies that the logD calibrated from logP has a better linear correlation with logkw than logP.
For basic compounds, the logD value can be calibrated from Eq. (S3), and the Collander equation can be rewritten into Eq. (S4). log log( )D − −+ −+= + ++P […]
lo g ' lo g 'Dm k n= +w (S4)
Where, pKa1, pKa2 , … p Kan are the dissociation constants of basic compounds of corresponding acids in the mobile phase, pH is the pH value of mobile phase, m′ and n′ are fitting parameters. Han et al. pointed out that although mobile phase pH and pKa of solutes will change along with the varied organic modifier fraction, the difference between a couple of relevant pH and pKa is a constant. Therefore, the used pH and pKa in this paper were both the values obtained at 100% aqueous phase. […]

[6] = logD determined by multi-parameter QSRR models from IS-RPLC logkw
Experimental: Multi-parameter QSRR models including logD, logkw, ne, A, and B were established using the multiple linear regression (MLR) method. In the process of linear fitting, ne, A, B, and their different combinations were introduced to optimize the models.
The logD values reported in the literature for these four compounds were calculated using Equation (S3) with corresponding pKa, logP, and pH values.
At each pH, the retention time (tR) of every analyte was determined for at least four different volume fractions (φ) of methanol. All the tR values of the solutes were obtained by averaging the results of at least three independent injections. The tR value was corrected using dual-point retention time correction (DP-RTC). For a detailed description of the process, refer to our previous work. For the different hydrophobicities of the studied compounds, benzene, toluene, and benzyl alcohol were used as anchor compounds in the DP-RTC method. The dead time t0 was determined using uracil. For each solute, the logarithm of k was plotted against φ, and logkw was obtained using the Equation (S1). The logD values of the model compounds were calculated using Equation (S3), and the logD–logkw models were established with Equation (S4). The statistical analysis for the regression model was accomplished using Origin 9.4.

[7] = pH 7.0, methanol/20 mmol/L ammonium phosphate buffer, Welch Xtimate C18, 30 °C, 100% aqueous extrapolation
[8] = pH 8.0, methanol/20 mmol/L ammonium phosphate buffer, Welch Xtimate C18, 30 °C, 100% aqueous extrapolation
[9] = pH 9.0, methanol/20 mmol/L ammonium phosphate buffer, Welch Xtimate C18, 30 °C, 100% aqueous extrapolation
[10] = pH 10.0, methanol/20 mmol/L ammonium phosphate buffer, Welch Xtimate C18, 30 °C, 100% aqueous extrapolation
[11] = pH 10.0, calculated with literature logP, pKa and pH, Equation (S3)
[12] = pH 7.0, calculated with literature logP, pKa and pH, Equation (S3)
[13] = pH 8.0, calculated with literature logP, pKa and pH, Equation (S3)
[14] = pH 9.0, calculated with literature logP, pKa and pH, Equation (S3)

| SMILES | pKa1 [1] | logkw-pH 7.0 ([2]; pH 7) | logkw-pH 8.0 ([2]; pH 8) | logkw-pH 9.0 ([2]; pH 9) | logkw-pH 10.0 ([2]; pH 10) | logP ([3]; n-octanol/water) | B [4] | logDpH 7.0 ([5]; pH 7) | logDpH 8.0 ([5]; pH 8) | logDpH 9.0 ([5]; pH 9) | logDpH 10.0 ([5]; pH 10) | logkw-pH 7.0 [2, 7] | logkw-pH 8.0 [2, 8] | logkw-pH 9.0 [2, 9] | logkw-pH 10.0 [2, 10] | also measured |
| --- | --- | --- | --- | --- | --- | --- | --- | --- | --- | --- | --- | --- | --- | --- | --- | --- |
| Nc1ccc(N)cc1 [1,4-Benzenediamine] | 6.31 | −0.39 | −0.35 | −0.17 | −0.04 | −0.30 | 1.30 | −0.38 | −0.31 | −0.30 | −0.30 | – | – | – | – | pKa2 [1]: 2.97 |
| Cc1cc(C)nc(C)c1 [2,4,6-Trimethylpyridine] | – | – | – | – | – | 2.01 | 0.63 | 1.44 | 1.91 | 2.00 | – | 2.06 | 2.23 | 2.30 | 2.34 | logDpH 10.0 [5, 11]: 2.01 |
| c1ccc(-c2ccncc2)cc1 [4-Phenylpyridine] | 5.45 | 2.66 | 2.81 | 2.84 | 2.80 | 2.59 | 1.38 | 2.58 | 2.59 | 2.59 | 2.59 | – | – | – | – | – |
| CC(C)c1ccc(N)cc1 [4-Isopropylaniline] | 4.85 | – | – | – | – | 2.23 | 0.92 | – | – | – | – | 2.42 | 2.57 | 2.59 | 2.65 | logDpH 7.0 [5, 12]: 2.23; logDpH 8.0 [5, 13]: 2.23; logDpH 9.0 [5, 14]: 2.23; logDpH 10.0 [5, 11]: 2.23 |
| CN(C)c1ccccc1 [N, N-Dimethylaniline] | 5.07 | 2.18 | 2.37 | 2.39 | 2.44 | – | 0.96 | – | – | – | – | – | – | – | – | – |
| CCN(CC)c1ccccc1 [N, N-Diethylaniline] | 6.57 | 3.20 | 3.44 | 3.47 | 3.54 | 3.31 | 0.95 | 3.17 | 3.29 | 3.31 | 3.31 | – | – | – | – | – |
| CCOc1ccc(N)cc1 [4-Ethoxyaniline] | – | 1.45 | 1.49 | 1.50 | 1.60 | 1.24 | 0.95 | 1.23 | 1.24 | 1.24 | 1.24 | – | – | – | – | – |
| CCc1ccccn1 [2-Ethylpyridine] | – | – | – | – | – | 1.67 | 0.61 | – | – | – | – | 1.74 | 1.79 | 1.80 | 1.90 | logP ([3]; Table 4, verification compounds): 1.67; chromatographic logD ([6]; IS-RPLC retention (logkw), pH 7): 1.62; chromatographic logD ([6]; IS-RPLC retention (logkw), pH 8): 1.62; chromatographic logD ([6]; IS-RPLC retention (logkw), pH 9): 1.6; chromatographic logD ([6]; IS-RPLC retention (logkw), pH 10): 1.65; logDpH 7.0 [5, 12]: 2.05; logDpH 8.0 [5, 13]: 2.05; logDpH 9.0 [5, 14]: 2.05; logDpH 10.0 [5, 11]: 2.05 |
| CCc1ccccc1N [2-Ethylaniline] | – | – | – | – | – | – | 0.96 | 1.63 | 1.67 | 1.67 | 1.67 | 1.87 | 1.94 | 1.95 | 1.95 | chromatographic logD ([6]; pH 7): 1.79; chromatographic logD ([6]; pH 8): 1.77; chromatographic logD ([6]; pH 9): 1.75; chromatographic logD ([6]; pH 10): 1.71 |
| NCc1ccccc1 [Benzylamine] | 9.35 | – | – | – | – | – | – | – | – | – | – | 0.36 | 0.49 | 1.05 | 1.42 | – |
| Cc1ccccc1N [2-Methylaniline] | – | 1.47 | 1.44 | 1.45 | 1.49 | 1.40 | 0.97 | 1.40 | 1.40 | 1.40 | 1.40 | – | – | – | – | – |
